Assay results from US4281121A, “1,3,4-Thiadiazole-2-carboxylic acid derivatives, process for making the same and fungicidal and nematocidal compositions containing same” (Schering Aktiengesellschaft, priority 1978, dated 1981).
Read-outs that look alike come from different tables or passages of the source.

Legend:
[1] = system: Pythium ultimum; assay: Threshold concentration test for use of the compounds against Pythium ultimum (infested soil, garden peas); assay type: in vivo; set-up: key to root evaluation (1-4): 4: white roots without fungous necrosis; 3: white roots, minor fungous necrosis; 2: brown roots, already more pronounced fungous necrosis; 1: heavy fungous necrosis, roots rotted; details: for root evaluation (1-4): 3 weeks; for number of sound peas: 20 grains per dish, 3 weeks at 20-24° C.
Outline: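 Garden pea seeds, 20 per dish, went straight into Pythium ultimum-infested soil into which 20% pulverulent formulations had been uniformly blended. Sound plants counted and roots rated 1–4 after three weeks of hothouse growth at 20–24 °C.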

[2] = system: Penicillium digitatum; assay: Inhibition of fungus in a nutrient solution: Penicillium digitatum; assay type: cell-based; details: 6 days at 21-23° C.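 Note: 0 means no fungus growth and higher grades mean more surface covered.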
[3] = system: Botrytis cinerea; assay: Inhibition of fungus in a nutrient solution: Botrytis cinerea; assay type: cell-based; details: 6 days at 21-23° C.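 Note: 0 means no fungus growth and higher grades mean more surface covered.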
[4] = system: Alternaria solani; assay: Inhibition of fungus in a nutrient solution: Alternaria solani; assay type: cell-based; details: 6 days at 21-23° C.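 Note: 0 means no fungus growth and higher grades mean more surface covered.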
[5] = system: Fusarium avenaceum; assay: Inhibition of fungus in a nutrient solution: Fusarium avenaceum; assay type: cell-based; details: 0.004%, 6 days at 21-23° C.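 Note: 0 means no fungus growth and higher grades mean more surface covered.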
Outline: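 Grape juice/water (1:1) nutrient solution mixed with powdered test agent, then inoculated with conidia. Surface fungal growth scored on a 0–5 scale after 6 days at 21–23 °C.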

[6] = system: Piricularia oryzae; assay type: in vivo; details: 5 days
[7] = system: Tilletia caries; assay: Seed treatment in open field tests regarding infestation by Tilletia caries (oats); assay type: in vivo; details: summer oats; 50 g active agent/100 kg; about 4 months
[8] = system: Helminthosporium gramineum; assay: Seed treatment in open field tests for infestation by Helminthosporium gramineum (barley); assay type: in vivo
Procedure: Seed treatment in open field tests for infestation by Helminthosporium gramineum
The active agents were used in the form of pulverulent compositions. After about 8 months in case of winter barley and after about 3 months in case of summer barley the infested plants were counted and the activity was calculated by the formula [formula]

[9] = system: Ustilago avenae; assay: Oat seed treatment for Ustilago avenae; assay type: in vivo; details: 100 g active agent/100 kg; 10 weeks
[10] = system: Fusarium nivale; assay: Treatment of rye seeds against Fusarium nivale; assay type: in vivo; details: 100 g/100 kg; about 4 weeks
Procedure: Treatment of rye seeds against Fusarium nivale
Rye seeds with a natural infestation by Fusarium nivale were seeded in earth filled pots and left for germination at about 6° C. Part of the seeds was treated before seeding with the active agents as appears from the subsequent table and part was untreated. After emergence of the seedlings the plants were illuminated with artificial light for 12 hours each day. After about 4 weeks the degree of infestation was determined in percentages. The fungicidal activity was calculated on the basis of the following formula: [formula]
The active agents were used in the form of 20% concentration compositions.

[11] = system: Venturia inaequalis; assay: Prophylactic leaf treatment of apples in open field test against Venturia inaequalis; assay type: in vivo; details: 3 weeks
[12] = system: Ustilago nuda tritici; assay: Treatment of wheat seeds in open field tests against Ustilago nuda tritici; assay type: in vivo; details: winter wheat; 100 g/100 kg seeds; eight months
Procedure: (§1) Treatment of wheat and barley seeds in open field tests against Ustilago nuda
(§2) Winter wheat seeds which had been infested with the smut cause Ustilago nuda tritici and winter barley seeds infested with Ustilago nuda nuda were treated with the agents listed in the table below and were seeded at seeding time in open fields. As a control untreated seeds were likewise included in the seed. After eight months the affected heads were counted for each test group and their proportion was calculated in order to find the fungicidal activity by the following formula: [formula]
(§3) The active compounds were employed in the form of 20% concentration powder compositions.

[13] = system: Ustilago nuda nuda; assay: Treatment of barley seeds in open field tests against Ustilago nuda nuda; assay type: in vivo; details: winter barley; 100 g/100 kg seeds; eight months
Procedure: as §1, §2, §3

[14] = system: Helminthosporium gram; details: about 5 weeks
Procedure: Treatment of barley seeds infested with Helminthosporium gram
After emergence, the plants were subjected to illumination for 12 hours per day. After about 5 weeks the infested plants were counted and the total number of plants for each test were also counted. The active agents tested were used as pulverulent compositions.

CC(C)CS(=O)(=O)c1nnc(C(N)=O)s1 [5-isobutylsulfonyl-1,3,4-thiadiazole-2-carboxamide]
root evaluation (1-4) ([1]; 20 mg/l soil): 1 | number of sound peas ([1]; 20 mg/l soil): 15 | root evaluation (1-4) ([1]; 40 mg/l soil): 4 | number of sound peas ([1]; 40 mg/l soil): 18 | root evaluation (1-4) ([1]; 80 mg/l soil): 4 | number of sound peas ([1]; 80 mg/l soil): 18 | fungus development on the surface of the nutrient solution (0-5) ([2]; 0.002%): 1 | fungus development on the surface of the nutrient solution (0-5) ([2]; 0.004%): 0 | fungus development on the surface of the nutrient solution (0-5) ([3]; 0.002%): 2 (5 to 10% of the surface covered by the fungus turf) | fungus development on the surface of the nutrient solution (0-5) ([3]; 0.004%): 1 | fungus development on the surface of the nutrient solution (0-5) ([4]; 0.002%): 0 | fungus development on the surface of the nutrient solution (0-5) ([4]; 0.004%): 0 | fungus development on the surface of the nutrient solution (0-5) [5]: 0 | % activity ([6]; concentration of active agent 0.02 (percentages)): 65% | % activity ([6]; concentration of active agent 0.1 (percentages)): 90% | % activity [7]: 99% | % activity ([8]; summer barley, 50 g active agent/100 kg barley, about 3 months): 99.5% | % activity ([8]; summer barley, 100 g active agent/100 kg barley, about 3 months): 100% | % activity ([8]; winter barley, 50 g active agent/100 kg barley, about 8 months): 100% | % activity ([8]; winter barley, 75 g active agent/100 kg barley, about 8 months): 100% | % activity ([8]; winter barley, 100 g active agent/100 kg barley, about 8 months): 100% | % activity [9]: 87% | % activity [10]: 99.2% | % activity ([11]; concentration of active agent 0.005 (in gram)): 87% | % activity ([11]; concentration of active agent 0.025 (in gram)): 95% | % activity [12]: 75% | % activity [13]: 79% | % activity ([14]; 20 g active agent per 100 kg): 60% | % activity ([14]; 50 g active agent per 100 kg): 87%
